The record followed here is US11484032B2, “Compositions for inhibition of insect sensing” (Vanderbilt University, priority 2011, dated 2022).

Each structure is given as a SMILES string.

Assay [1] has as its system Un-transfected HEK293 cells. The experiment in a line: Whole-cell patch clamp, un-transfected HEK293 control cells. It is filed as cell-based, human. The protocol: Currents from OR-expressing HEK293 cells were amplified with an Axopatch 200b Amplifier (Axon Instruments) and digitized through a Digidata 1322A (Axon Instruments). Electrophysiological data was recorded and analyzed using pCLAMP 10 (Axon Instruments). Electrodes were fabricated from quartz tubing (Sutter Instruments) and pulled to 4-6 MiΩ for whole cell recording. Electrodes were filled with internal solution (120 mM KCl, 30 mM D-glucose, 10 mM HEPES, 2 mM MgCl2, 1.1 mM EGTA, and 0.1 CaCl2) (pH 7.35, 280 mOsm). External (bath) solution contained 130 mM NaCl, 34 mM D-glucose, 10 mM HEPES, 1.5 mM CaCl2), 1.3 mM KH2PO4, and 0.5 MgSO4 (pH 7.35, 300 mOsm). Compounds were diluted in external solution and locally perfused to the recording cell using Perfusion Pencil (Automate Scientific) and controlled by a ValveLink 8.2 controller (Automate Scientific). Whole cell recordings were sampled at 10 kHz and filtered at 5 kHz. Outside-out patches were obtained using 10-15MΩ electrodes pulled from standard glass capillaries (World Precision Instruments) and fire-polished with an MF-830 micro forge (Narishige). Single channel recordings were sampled at 20 kHz. Recordings were reduced to 1 kHz and low-pass filtered at 500 Hz for display and analysis using QuB (SUNY at Buffalo).
(The patch-clamp technique gives a direct electrical read-out from membranes.)

For another assay, the target named is T1, DmORco (Drosophila melanogaster, UniProt Q9VNB5).
T1 construct: expressed in transfected cells; host or cells: Flp-In T-REx 293 (HEK), transient, pCI vector, GFP co-transfected as a separate marker
T1 sequence (Q9VNB5 1-486): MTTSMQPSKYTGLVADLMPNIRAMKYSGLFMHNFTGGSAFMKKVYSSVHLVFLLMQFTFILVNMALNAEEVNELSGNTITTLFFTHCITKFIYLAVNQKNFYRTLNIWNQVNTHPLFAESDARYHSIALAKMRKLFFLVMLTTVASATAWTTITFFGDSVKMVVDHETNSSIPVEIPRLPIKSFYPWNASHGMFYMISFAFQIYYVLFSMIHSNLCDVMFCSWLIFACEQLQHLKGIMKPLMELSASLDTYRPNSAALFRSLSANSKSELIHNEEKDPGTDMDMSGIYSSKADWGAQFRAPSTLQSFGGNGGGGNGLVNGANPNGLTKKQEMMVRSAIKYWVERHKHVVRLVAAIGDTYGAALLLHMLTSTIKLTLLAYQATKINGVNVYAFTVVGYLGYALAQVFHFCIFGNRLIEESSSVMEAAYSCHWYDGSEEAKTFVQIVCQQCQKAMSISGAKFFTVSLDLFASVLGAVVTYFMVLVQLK
The experiment in a line: Whole-cell patch clamp, HEK cells transiently expressing DmORco. In kind it is cell-based. Conditions: DmORco transiently transfected HEK cells. An excerpt: For transient transfections, ORs were cloned into pCl (Promega) and transfected into Flp-In™ T-REx™293 cell lines (Invitrogen) with Fu GENE6 (Roche). For the creation of stable cell lines, a cell culture expression vector capable of expressing Orco in conjunction with a conventional OR, pcDNA5/FRT/TO (Invitrogen) was modified to create two individual expression cassettes each under the control of a separate CMV/Tet02 promoter and a BGH poly-adenylation signal. Cells (as above) were transfected with the modified pcDNA5 plasmid along with POG44 (a Flp recombinase expression plasmid) to facilitate site-specific recombination. Stable cell lines were selected using Hygromycin B (Invitrogen). Cells were maintained in DMEM (Invitrogen) supplemented with 10% Tetracycline-free FBS (HyClone) and 15 ng/ml Blasticidin. […] Baseline readings were taken for 20 s before automated addition of compound previously diluted in DMSO and assay buffer. […]
Currents from OR-expressing HEK293 cells were amplified with an Axopatch 200b Amplifier (Axon Instruments) and digitized through a Digidata 1322A (Axon Instruments). Electrophysiological data was recorded and analyzed using pCLAMP 10 (Axon Instruments). […]

Assay [2] deals with AgORco-expressing CpB/C neurons. The experiment in a line: Single sensillum recording, capitate peg sensilla, CpB/C neurons. In kind it is in vivo, Anopheles gambiae. Conditions: compound delivered via glass recording electrode. The protocol:
Single sensillum recordings were performed on 4-7 day old, non-bloodfed Anopheles gambiae females maintained on 10% sucrose and a 12/12 light dark cycle. Legs, wings and antennae were removed from cold-anesthetized females that were then restrained on double-stick tape with thread. A glass reference electrode filled with Sensillar lymph ringers (SLR)(Xu, 2005) was placed in the eye and the recording electrode filled with DMSO or VUAA1 diluted in SLR was used to puncture sensilla at their base. Responses were recorded and digitized using a Syntech IDAC-4 and analyzed with AutoSpike software (Syntech). New glass recording pipettes were used for every recording. Data was sampled at 12 kHz.
The inventors next performed single unit, extracellular electrophysiological recordings on adult female An. gambiae to determine whether VUAA1 could activate AgORco-expressing odorant receptor neurons (ORNs) in vivo. ORNs, which express AgORco and a conventional OR are enclosed within the hair-like sensilla present on olfactory tissues. […] CpA is clearly distinguished from CpB/C by its large action potential amplitude. The action potential amplitudes of CpB and CpC are much smaller and in some preparations indistinguishable from each other; as a result, the spike activity of CpB and CpC neurons were binned for data analysis. […]

Assay [3] concerns the target T2, rat transient receptor potential vanilloid 1 (rTRPV1) (Rattus norvegicus, UniProt O35433).
T2 construct: expressed in transfected cells
Kind of assay: Whole-cell patch clamp, HEK cells stably expressing rTRPV1. It is filed as cell-based.

T2 sequence (O35433 whole entry): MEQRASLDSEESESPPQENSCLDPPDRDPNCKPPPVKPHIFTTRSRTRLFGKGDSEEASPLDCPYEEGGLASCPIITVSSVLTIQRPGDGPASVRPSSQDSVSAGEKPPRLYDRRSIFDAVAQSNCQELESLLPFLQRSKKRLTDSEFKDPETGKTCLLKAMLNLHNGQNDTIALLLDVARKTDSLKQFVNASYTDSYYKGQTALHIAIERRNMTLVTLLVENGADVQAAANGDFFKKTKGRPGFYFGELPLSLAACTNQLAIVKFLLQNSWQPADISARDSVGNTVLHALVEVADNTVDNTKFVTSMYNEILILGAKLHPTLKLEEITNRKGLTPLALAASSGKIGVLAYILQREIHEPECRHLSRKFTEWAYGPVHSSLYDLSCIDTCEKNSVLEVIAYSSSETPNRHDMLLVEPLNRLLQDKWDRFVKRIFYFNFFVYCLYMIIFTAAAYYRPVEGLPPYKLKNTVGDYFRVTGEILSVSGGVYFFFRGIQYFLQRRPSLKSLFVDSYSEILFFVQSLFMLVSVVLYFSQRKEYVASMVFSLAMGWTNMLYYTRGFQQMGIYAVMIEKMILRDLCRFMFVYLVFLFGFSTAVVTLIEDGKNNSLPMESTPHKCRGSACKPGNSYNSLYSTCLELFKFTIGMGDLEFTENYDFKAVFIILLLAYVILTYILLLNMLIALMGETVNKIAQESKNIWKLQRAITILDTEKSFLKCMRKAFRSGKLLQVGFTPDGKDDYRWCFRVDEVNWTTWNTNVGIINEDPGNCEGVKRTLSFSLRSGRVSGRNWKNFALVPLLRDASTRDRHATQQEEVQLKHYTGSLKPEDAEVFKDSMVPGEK

As to `CCc1ccc(NC(=O)CSc2nnc(-c3cccnc3)n2CC)cc1` [VUAA1, 2-((4-ethyl-5-(pyridin-3-yl)-4H-1,2,4-triazol-3-yl)thio)-N-(4-ethylphenyl)acetamide], the whole-cell current response result was “did not respond” in assay [1], “robust inward currents” at DmORco and “did not elicit currents” in assay [3]. The “spike frequency of CpB/C neurons” value in assay [2] is recorded as “increased the spike frequency of CpB/C neurons in a dose-dependent manner”.
